“Also recorded” adds a separate entry of the source.

Data set [1] concerns RAW 264.7 murine macrophages. To be noted: cited from earlier work.
In data set [2] the test system is NO production from LPS-activated macrophages. Also noted: method as in PMID 12762798. To be noted: cited from earlier work.
For the next data set, the system named is P-388. To be noted: cited from earlier work; for cytotoxicity against P-388 IC50: moderate cytotoxicity.
For another data set, the system named is 11 cancer cell lines. To be noted: SRB assay; cited from earlier work.
Data set [3] relates to A549, SK-OV-3, SK-MEL-2, MES-SA and HCT-15. Also noted: method as in PMID 15089031. To be noted: cited from earlier work.
The subject of a further data set is P388. To be noted: cited from earlier work.
The test system of the next data set is HT-29. To be noted: cited from earlier work.
The next data set deals with platelet aggregation. Also noted: method as in PMID 12350148. To be noted: cited from earlier work.
For another data set, the system named is HL-60 cells. Also noted: method as in doi:10.1016/j.phytol.2012.02.014. To be noted: much weaker than RA-XXIV and RA-VII; cited from earlier work.
Another data set relates to A549, Hela and SMMC-7721. Also noted: method as in PMID 21973054. To be noted: data not very satisfactory; cited from earlier work.
In the next data set the test system is iNOS. Also noted: method as in PMID 12808242. To be noted: cited from earlier work.

Consider RA-I [Compound 66], for which the “activity against NO production in LPS” value in data set [1] is listed as “exhibited activity”.
As to `CC(=O)OC[C@@]12CC[C@@]3(C)[C@H]4C(=CC[C@]3(C)[C@H]1[C@H](O)C[C@H]2C(C)C)[C@@]1(C)C[C@@H](O)[C@H](O)C(C)(C)[C@@H]1C[C@@H]4O` [Compound 43, Rubianol-d], in data set [2], the “efficacy of NO production inhibition compared with L-NMMA” value is “equivalent to L-NMMA” and the “inhibition of NO production” value was “exhibited the inhibition”.
As for `COc1ccc(C[C@H]2C(=O)N[C@@H](C)C(=O)N(C)[C@H]3Cc4ccc(cc4)Oc4cc(ccc4OC)C[C@@H](C(=O)N[C@H](C)C(=O)N[C@@H](CCC(N)=O)C(=O)N2C)N(C)C3=O)cc1` [Compound 90, RA- XXIII], the “cytotoxicity against P-388 IC50” value in the data set on P-388 (P-388) is 160 µg/mL.
For orientation: melting point means the temperature of the solid-liquid transition. `COC(=O)CC[C@@H]1NC(=O)[C@@H](C)NC(=O)[C@@H]2Cc3ccc(O)c(c3)Oc3ccc(cc3)C[C@@H](C(=O)N2C)N(C)C(=O)[C@H](C)NC(=O)[C@H](Cc2ccc(OC)cc2)N(C)C1=O` came in with a melting point of 253 to 254 °C.
In the case of Rubiyunnanin B [Compound 93], the “cytotoxicities against the 11 cancer cell lines” value in the data set on 11 cancer cell lines was “moderate cytotoxicities”.
With `CC(=O)OC1CCC2(C)C(CCC3(C)C2CC=C2C4CC(C)(C)CCC4(C=O)CCC23C)C1(C)C` (stereo not drawn) [Compound 15, Oleanolic aldehyde acetate], the “bioactivities against A549, SK-OV-3, SK-MEL-2, MES-SA and HCT-15” value in [3] is “potent bioactivities”.
As for RA-IX [Compound 76], the “antitumour effect on P388” value in the data set with P388 is given as “almost no antitumour activities”.
With Rubianol-e [Compound 44], in data set [2], the “efficacy of NO production inhibition compared with L-NMMA” value was “equivalent to L-NMMA” and the “inhibition of NO production” value is “exhibited the inhibition”.
Take `CC(C)[C@@H]1C[C@@H](O)[C@H]2[C@@]1(CO)CC[C@@]1(C)[C@H]3C(=CC[C@]21C)[C@@]1(C)CC[C@H](O)C(C)(C)[C@@H]1C[C@@H]3O` [Compound 16, Rubiarbonol A]: the melting point lay in the range of 260 to 263 °C. For the same compound, the “cytotoxicity against HT-29” value in the data set with HT-29 is “relatively strong cytotoxicity”. Also, the “inhibition of NO production” value in data set [2] is reported as “inhibit NO production; also recorded: inhibitory activities on NO production”. Also, in the data set with platelet aggregation, the “effect on platelet aggregation at the high doses” value was “promoted platelet aggregation” and the “effect on platelet aggregation at the lower concentrations” value is reported as “possessed antiplatelet aggregation activity”.
Consider RC-18 [Compound 105], for which the “activities against P388” value in the data set with P388 is listed as “medium activities”.
With `COc1ccc(C[C@H]2C(=O)N[C@@H](C)C(=O)N(C)[C@H]3Cc4ccc(cc4)Oc4cc(ccc4O)C[C@@H](C(=O)N[C@H](C)C(=O)N[C@@H](CCC(N)=O)C(=O)N2C)N(C)C3=O)cc1` [Compound 91, RA- XXIV], the “cytotoxicity against P-388 IC50” value in the data set with P-388 (P-388) was 480 µg/mL. The “activity against NO production in LPS” value in [1] is recorded as “exhibited activity”.
Take `CC(=O)OC[C@@]12CC[C@@]3(C)[C@H]4C(=CC[C@]3(C)[C@H]1[C@H](O)C[C@H]2C(C)C)[C@@]1(C)CCC(=O)C(C)(C)[C@@H]1C[C@@H]4O` [Compound 27, Rubiarbonone C]: the melting point was 98 to 100 °C. The “inhibition of NO production” value in data set [2] is listed as “inhibit NO production; also recorded: inhibitory activities on NO production”.
For `CC(C)[C@@H]1C[C@@H](O)[C@H]2[C@@]1(CO)CC[C@@]1(C)[C@H]3C(=CC[C@]21C)[C@@]1(C)C[C@@H](O)[C@H](O)C(C)(C)[C@@H]1C[C@@H]3O` [Compound 21, Rubiarbonol F], the “inhibition of NO production” value in data set [2] was “inhibit NO production; also recorded: inhibitory activities on NO production”.
For RA- XVIII [Compound 85], the “cytotoxicity against P-388” value with P-388 (P-388) was 0.012 µg/mL.
Regarding O-seco-RA-XXIV [Compound 109], in the data set on HL-60 cells, the “cytotoxic effects on HL-60 cells” value is recorded as “exhibited cytotoxic effects”.
Turning to Rubiarbonone A [Compound 25], in the data set on platelet aggregation, the “effect on platelet aggregation at the high doses” value is “promoted platelet aggregation” and the “effect on platelet aggregation at the lower concentrations” value is listed as “possessed antiplatelet aggregation activity”.
For `COc1ccc(C[C@H]2C(=O)N[C@@H](C)C(=O)N(C)[C@H]3Cc4ccc(cc4)Oc4cc(ccc4OC)C[C@@H](C(=O)N[C@H](C)C(=O)N[C@@H](C)C(=O)N2C)N(C)C3=O)cc1` [Compound 104, RA-700], in the data set with P388, the “activities against P388” value is on record as “medium activities”.
Take RA-X [Compound 77]: the “antitumour effect on P388” value with P388 is given as “strong antitumour effect”.
With `CC(C)[C@@H]1CC=C2[C@@]1(C)CC[C@@]1(C)[C@H]3C(=CC[C@]21C)[C@@]1(C)CC[C@H](O)C(C)(C)[C@@H]1C[C@@H]3O` [Compound 55, Rubiyunnanol B], the melting point lay in the range of 247 to 248 °C. In addition, the “inhibition on A549, Hela and SMMC-7721” value in the data set on A549, Hela and SMMC-7721 was “had inhibition”.
In the case of `CC(=O)O[C@@H]1C[C@@H](C(C)C)[C@]2(CO)CC[C@@]3(C)[C@H]4C(=CC[C@]3(C)[C@@H]12)[C@@]1(C)C=CC(=O)C(C)(C)[C@@H]1C[C@@H]4O` [Compound 58, Rubiarbonone E 19-acetate], the “inhibition on A549, Hela and SMMC-7721” value in the data set on A549, Hela and SMMC-7721 is recorded as “had inhibition”.
RY-I [Compound 100]: in [1], the “activity against NO production in LPS” value is given as “exhibited activity”.
In the case of RA-XII [Compound 79], the “antitumor activity against P388” value in the data set with P388 is on record as “potent antitumor activity”. In addition, the “effects on iNOS induction” value in the data set on iNOS was “potent effects”. For the same compound, the “activity against NO production in LPS” value in data set [1] was “exhibited activity”.
Take `CC(=O)OC[C@@]12CC[C@@]3(C)[C@H]4C(=CC[C@]3(C)[C@H]1[C@H](O)C[C@H]2C(C)C)[C@@]1(C)CC[C@H](O[C@@H]2O[C@H](CO[C@@H]3O[C@H](CO)[C@@H](O)[C@H](O)[C@H]3O)[C@@H](O)[C@H](O)[C@H]2O)C(C)(C)[C@@H]1C[C@@H]4O` [Compound 62, Rubiarboside G 28-acetate]: the “inhibition on A549, Hela and SMMC-7721” value in the data set on A549, Hela and SMMC-7721 is “had inhibition”.
Turning to `CC(C)[C@@H]1C[C@@H](O)[C@H]2[C@@]1(C)CC[C@@]1(C)[C@H]3C(=CC[C@]21C)[C@@]1(C)CC[C@H](O)C(C)(C)[C@@H]1C[C@@H]3O` [Compound 17, Rubiarbonol B], the “inhibition against arachidonic acid-induced and collagen-induced platelet aggregation” value with platelet aggregation (at 150 μM, among compounds 16, 17 and 25) is given as “most potent inhibition”.
As for `CC(C)[C@@H]1C[C@@H](O)[C@H]2[C@@]1(C)CC[C@@]1(C)C3=CC[C@H]4C(C)(C)[C@@H](O)CC[C@]4(C)C3=CC[C@]21C` [Compound 54, Rubiyunnanol A], the “inhibition on A549, Hela and SMMC-7721” value with A549, Hela and SMMC-7721 is given as “had inhibition”.
Turning to `CC(=O)OC[C@@]12CC[C@@]3(C)[C@H]4C(=CC[C@]3(C)[C@H]1[C@H](O)C[C@H]2C(C)C)[C@@]1(C)CC[C@H](O)C(C)(C)[C@@H]1C[C@@H]4O` [Compound 42, Rubianol-c], in data set [2], the “inhibition of NO production” value is recorded as “inhibit NO production; also recorded: inhibitory activities on NO production”.
For the compound RA- XXII [Compound 89], the “relative cytotoxicity against P388” value in the data set on P-388 (RA-VII (74) as reference) is recorded as “less cytotoxic than 88”.

The values are drawn from PMC3698108, “Structural and bioactive studies of terpenes and cyclopeptides from the Genus Rubia” (Chemistry Central Journal, 2013).
